Laboratory results reported in publication PMC5848173, “PhcrTx2, a New Crab-Paralyzing Peptide Toxin from the Sea Anemone Phymanthus crucifer” (Toxins, 2018).
No end group written: not given here.

Experiments:
[1] = system: heteromeric channels that contain the ASIC3 subunit; conditions: except the ASIC2a + 3 current; ref [38]; cited from earlier work
Excerpt: (§1) The inhibition of PhcrTx2 on glutamate-gated currents in snail neurons, and also on voltage-activated K^+ currents in DRG neurons, seems to be of about similar potency and slightly different in efficacy. PhcrTx2 also acted on voltage-dependent Na^+-channels of DRG neurons but with lower efficacy, in comparison with its effect on K^+ channels. […] These facts resemble previous re ...

ASIC3 = conditions: ref [38], cited from earlier work
Excerpt: as §1

[2] = system: insect and mammalian Nav channels; conditions: ref [38],[58]; cited from earlier work
Excerpt: as §1

[3] = Anthopleura elegantissima toxins; ref [5],[38]; cited from earlier work
Excerpt: as §1

Kv3.4 channels = conditions: ref [38],[58]; cited from earlier work
Excerpt: as §1

[4] = system: glutamate-gated currents in snail neurons; assay: Glutamate-gated currents in isolated snail neurons (whole-cell patch clamp); format: cell-based, Helix aspersa; conditions: glutamate 1 mM
Description: The effects of PhcrTx2 were studied in isolated mammalian and snail neurons using the whole cell patch-clamp technique. Animal care and procedures were in accordance with the National Institutes of Health Guide for the Care and Use of Laboratory Animals. All efforts were made to minimize animal suffering. The number of animals used for this work was kept to the minimum necessary for a meaningful interpretation of the data.
Experiments to study glutamate-activated currents were performed in isolated neurons of the land snail Helix aspersa. The subesophageal mass of the snail was dissected, and put into the Ringer solution for snails (Supplementary Table S4) containing trypsin (2 mg/mL for 30 min, at 37 °C). After enzymatic treatment, the preparation was washed with normal solution for snails, and the neurons were mechanically dissociated, plated on glass coverslips (Corning) pretreated with poly-D-lysine (Sigma-Aldrich), and placed onto 35-mm culture dishes (Corning). Neurons were maintained at room temperature (23–25 °C) for at least 30 min before using, in order to allow the isolated cells to adhere to the coverslips. The whole-cell recording was carried out using the same experimental conditions that were described in Section 5.2.2.
Glutamate currents were elicited by a fast glutamate application (about 40 ms) by shifting one of the three outlets of a fast change perfusion system (SF-77B, Warner Inst., Hamden, CT, USA) while keeping the cell at a holding potential (Vh) of −100 mV. The interval between glutamate applications was one minute, to guarantee that the current completely recovered from desensitization. The pH of glutamate solution was checked before each experiment to avoid the potential activation of proton-gated currents. At the beginning of this study, experiments were designed to compare the effect of the toxin using two application protocols.
The solutions used in the experiments are depicted in Supplementary Table S4. The concentration-response curves were fitted to the Hill equation following the procedure described in Section 5.2.2.

crabs = conditions: Antheopsis maculata toxin; ref [21]; cited from earlier work
Excerpt: Many of these peptides have been classified as voltage-gated sodium channel toxins, whereas few other crab-paralyzing peptides act on different targets, such as voltage-gated potassium channels. On the other hand, other paralyzing toxins seem to belong to new classes of toxins. In this work, we found a diversity of paralyzing toxins from the sea anemone P. crucifer by using a crab toxicity assay for biological activity screening during the purification process. Sixteen chromatographic fractions sh ... || (+ 1 further places)

APETx2: toxin from Anthopleura elegantissima, ASIC3 blocker (UniProtKB P61542) (GTACSCGNSKGIYWFYRPSCPTDRGYTGSCRYFLGTCCTPAD; UniProt P61542 1-42, looked up)
effect on heteromeric channels containing ASIC3 [1]: affects heteromeric channels that contain the ASIC3 subunit, except the ASIC2a + 3 current
IC50 (ASIC3; reversible blocker, read-out: IC50, peak component of the ASIC3 current): 63 nM
effect on the sustained component of ASIC3 current (ASIC3; sustained component): no effect
effect on Nav channels [2]: inhibiting the sodium conductance without affecting the inactivation and shifting activation to a depolarizing direction
target selectivity [3]: lack of target selectivity
inhibition of Kv3.4 channels (Kv3.4 channels): partially inhibits Kv3.4 channels

N[C@@H](CCC(=O)O)C(=O)O [glutamate]
glutamate-evoked current at positive potential ([4]; 80 mV, n = 5): 0.3 ± 0.1 nA
glutamate-evoked current ([4]; holding potential −100 mV, n = 5, average): about 2.6 ± 1.4 nA
reversal potential of glutamate-evoked current ([4]; average, "close to"): ~0 mV

APETx1: toxin from Anthopleura elegantissima (UniProtKB P61541) (GTTCYCGKTIGIYWFGTKTCPSNRGYTGSCGYFLGICCYPVD; UniProt P61541 1-42, looked up)
target selectivity [3]: lack of target selectivity

Am II: crab-paralyzing toxin from Antheopsis maculata (UniProtKB P69930) (ALLSCRCEGKTEYGDKWLFHGGCPNNYGYNYKCFMKPGAVCCYPQN; ends and bridges not checked; cysteine pairing not given here; UniProt P69930 33-78, looked up)
crab-paralyzing activity (crabs): crab-paralyzing toxin
